EPA's ToxValDB 9.5 (doi:10.2903/j.efsa.2006.85r)
In brackets after ≈: the same amount, converted by molar mass.

Legend:
Typhlodromus pyri = test: LR50; higher = less toxic; conditions: not reported; mortality
Canidae = conditions: oral, Dog Other, clinical chemistry
Pimephales promelas = conditions: chronic/long-term; duration: 34 days; growth
Tagia sp. = conditions: acute; duration: 14 days; mortality
Apis mellifera = conditions: acute; duration: 48 hours; oral; unspecified; mortality
Daphnia magna = conditions: chronic/long-term; duration: 21 days
Lepomis macrochirus = conditions: acute; duration: 96 hours; mortality

With `CCOP(=S)(OCC)Oc1cc(C)nc(C(C)C)n1` [Diazinon] the LR50 (Typhlodromus pyri) was 0.153 g/ha, the NOAEL (Canidae; chronic, duration: 52 weeks) was 0.02 mg/kg-day and the NOAEL (Canidae; subchronic, duration: 90 days) was 0.02 mg/kg-day. The NOEC (Pimephales promelas) was 0.092 mg/L, the LC50 (Tagia sp.) was 65 mg/kg and the NOEL (Tagia sp.) was 6.15 mg/kg. It also gave an LD50 (Apis mellifera) of 0.09 µg/piece, an NOAEL (Rattus norvegicus; acute, oral, clinical chemistry) of 2.5 mg/kg-day and an LD50 (Rattus norvegicus; acute, oral, mortality) of 1130 mg/kg-day. For the same molecule, the NOEC (Rattus norvegicus; reproduction developmental, reproduction) was 0.65 mg/kg-day, the NOEC (Daphnia magna) was 0.00017 mg/L and the LD50 (Anas platyrhynchos; acute, oral, unspecified, mortality) was 1.44 mg/kg. The NOEL (Anas platyrhynchos; reproductive) was 1.2 mg/kg-day, the LC50 (Anas platyrhynchos; short-term, duration: 8 days, oral, feed, mortality) was 8 mg/kg-day and the LC50 (Lepomis macrochirus) was 0.27 µg/mL (≈ 0.887 µM).
